# In PMC4813177, “Molecular Recognition of the Catalytic Zinc(II) Ion in MMP-13: Structure-Based Evolution of an Allosteric Inhibitor to Dual Binding Mode Inhibitors with Improved Lipophilic Ligand Efficiencies” (International Journal of Molecular Sciences, 2016):
# Target: T1, MMP-13 (Homo sapiens, UniProt P45452)
# T1 construct: purchased Reaction Biology Corporation, Malvern, PA, USA (contract assay service)
# Experiment: MMP-13 in vitro inhibition assay (FRET peptide substrate)
# Format: biochemical
# Details: for LE (Ligand Efficiency): 1.4(−logIC50)/N, N = number of non-hydrogen atoms; for LLE (lipophilic ligand efficiency): LLE = pIC50 - clogP; for remaining activity at 10 µM: at 10 μM inhibitor concentration, read-out: % Activity (remaining enzyme activity); for remaining activity at 10 µM / IC50: triplicate; for IC50: 10 concentrations starting at 10 μM
# Description: Consecutively the synthesized compounds were tested for their inhibition activity against MMP-13 in in vitro assays. The values are averaged over triplicate determinations (Table 1).
# The substrate used for the determinations was the (5-FAM/QXLTM) FRET peptide. The buffer consisted of 50 mM HEPES at pH 7.5 with 10 mM CaCl2 and 0.01% Brij-35. 0.1 mg/mL BSA was added before use. As a control inhibitor GM6001 was used.
LE (Ligand Efficiency),LLE (lipophilic ligand efficiency),remaining activity at 10 µM [%],IC50 [nM],SMILES
0.24,1.53,9.1 ± 0.9,822 ± 210,"O=C(Cc1cccc(OCCCCCO)c1)Nc1ccc2c(c1)C(=O)N(Cc1ccccc1)C2=O [Compound 2, N-(2-benzyl-1,3-dioxo-2,3-dihydro-1H-isoindol-5-yl)-2-{3-[(5-hydroxypentyl)oxy]phenyl}acetamide]"
0.27,2.46,2.4 ± 0.1,134 ± 40,"O=C(O)CCCCOc1cccc(CC(=O)Nc2ccc3c(c2)C(=O)N(Cc2ccccc2)C3=O)c1 [Compound 3, 5-(3-{[(2-benzyl-1,3-dioxo-2,3-dihydro-1H-isoindol-5-yl)carbamoyl]methyl}phenoxy)pentanoic acid]"
0.21,2.53,13.8 ± 1.4,767 ± 80,"CS(=O)(=O)NC(=O)CCCCOc1cccc(CC(=O)Nc2ccc3c(c2)C(=O)N(Cc2ccccc2)C3=O)c1 [Compound 4, 5-(3-{[(2-benzyl-1,3-dioxo-2,3-dihydro-1H-isoindol-5-yl)carbamoyl]methyl}phenoxy)-N-methanesulfonylpentanamide]"
0.25,2.45,6.7 ± 0.5,328 ± 50,"CNC(=O)CCCCOc1cccc(CC(=O)Nc2ccc3c(c2)C(=O)N(Cc2ccccc2)C3=O)c1 [Compound 5, 5-(3-{[(2-benzyl-1,3-dioxo-2,3-dihydro-1H-isoindol-5-yl)carbamoyl]methyl}phenoxy)-N-methylpentanamide]"
0.26,2.55,7.9 ± 0.4,586 ± 130,"O=C(Cc1cccc(OCCCO)c1)Nc1ccc2c(c1)C(=O)N(Cc1ccccc1)C2=O [Compound 11, N-(2-benzyl-1,3-dioxo-2,3-dihydro-1H-isoindol-5-yl)-2-[3-(3-hydroxypropoxy)phenyl]acetamide]"
–,–,33 ± 2.9,–,"O=C(Cc1cccc(OCCCCCCO)c1)Nc1ccc2c(c1)C(=O)N(Cc1ccccc1)C2=O [Compound 13, N-(2-benzyl-1,3-dioxo-2,3-dihydro-1H-isoindol-5-yl)-2-{3-[(6-hydroxyhexyl)oxy]phenyl}acetamide]"
–,–,15.4 ± 0.3,–,"O=C(O)CCOc1cccc(CC(=O)Nc2ccc3c(c2)C(=O)N(Cc2ccccc2)C3=O)c1 [Compound 14, 3-(3-{[(2-benzyl-1,3-dioxo-2,3-dihydro-1H-isoindol-5-yl)carbamoyl]methyl}phenoxy)propanoic acid]"
0.24,2.16,4.6 ± 0.6,777 ± 50,"O=C(O)CCCOc1cccc(CC(=O)Nc2ccc3c(c2)C(=O)N(Cc2ccccc2)C3=O)c1 [Compound 15, 4-(3-{[(2-benzyl-1,3-dioxo-2,3-dihydro-1H-isoindol-5-yl)carbamoyl]methyl}phenoxy)butanoic acid]"
0.25,1.70,2.6 ± 0.3,280 ± 40,"O=C(O)CCCCCOc1cccc(CC(=O)Nc2ccc3c(c2)C(=O)N(Cc2ccccc2)C3=O)c1 [Compound 16, 6-(3-{[(2-benzyl-1,3-dioxo-2,3-dihydro-1H-isoindol-5-yl)carbamoyl]methyl}phenoxy)hexanoic acid]"
–,–,30.5 ± 0.8,–,"CS(=O)(=O)NC(=O)CCOc1cccc(CC(=O)Nc2ccc3c(c2)C(=O)N(Cc2ccccc2)C3=O)c1 [Compound 17, 3-(3-{[(2-benzyl-1,3-dioxo-2,3-dihydro-1H-isoindol-5-yl)carbamoyl]methyl}phenoxy)-N-methanesulfonylpropanamide]"
0.22,2.91,11.2 ± 0.3,896 ± 60,"CS(=O)(=O)NC(=O)CCCOc1cccc(CC(=O)Nc2ccc3c(c2)C(=O)N(Cc2ccccc2)C3=O)c1 [Compound 18, 4-(3-{[(2-benzyl-1,3-dioxo-2,3-dihydro-1H-isoindol-5-yl)carbamoyl]methyl}phenoxy)-N-methanesulfonylbutanamide]"

SMILES,LE (Ligand Efficiency),LLE (lipophilic ligand efficiency),remaining activity at 10 µM [%],IC50 [nM]
"O=C(Cc1cccc(OCCCCO)c1)Nc1ccc2c(c1)C(=O)N(Cc1ccccc1)C2=O [Compound 12, N-(2-benzyl-1,3-dioxo-2,3-dihydro-1H-isoindol-5-yl)-2-[3-(4-hydroxybutoxy)phenyl]acetamide]",0.26,2.22,7.6 ± 0.5,454 ± 200
